Results from US9023789B2, “Amylin analogs and pharmaceutical compositions thereof” (Novo Nordisk A/S, priority 2012, dated 2015).
Numbered stars: 1 amine (or outer) side, 2 acyl side, 3 side chain; on linkers, the order of the positions; unused ones are H or OH. Bridge positions count the residues as written; N and C are the ends. Side chains are listed from the residue outwards. Peptide text beside a SMILES is read from it. * marks the point of attachment. C20 diacid = O=C(O)CCCCCCCCCCCCCCCCCCC(=O)*; γGlu = O=C(O)[C@H](CCC(=O)[*:2])N[*:1]

Assays:
[1] = molecular target: T1, human amylin 3(a) receptor (human calcitonin receptor + RAMP-3) in BHK570 cells (Homo sapiens, UniProt O60896+P30988); assay: ASSAY (II)a functional assay, human amylin receptor (CRE luciferase); assay type: cell-based; details: for EC50: human amylin receptor functional potency, assay (II), read-out: hAmylin-R funct. EC50
T1 construct: expressed in transfected cells
In short: (§1)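 Readout is luminescence from a cAMP-responsive CRE-luc reporter, developed with LucLite for 30 min at room temperature. Cells were treated for 3 h at 37 °C in 10% FBS/DMEM buffered with 10 mM Hepes (pH 7.4).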

[2] = molecular target: T2, human calcitonin (a) receptor in BHK570 cells (Homo sapiens, UniProt P30988); assay: ASSAY (II)a functional assay, human calcitonin receptor (CRE luciferase); assay type: cell-based; details: read-out: hCTR funct. EC50
T2 construct: expressed in transfected cells
T2 sequence (P30988 25-474): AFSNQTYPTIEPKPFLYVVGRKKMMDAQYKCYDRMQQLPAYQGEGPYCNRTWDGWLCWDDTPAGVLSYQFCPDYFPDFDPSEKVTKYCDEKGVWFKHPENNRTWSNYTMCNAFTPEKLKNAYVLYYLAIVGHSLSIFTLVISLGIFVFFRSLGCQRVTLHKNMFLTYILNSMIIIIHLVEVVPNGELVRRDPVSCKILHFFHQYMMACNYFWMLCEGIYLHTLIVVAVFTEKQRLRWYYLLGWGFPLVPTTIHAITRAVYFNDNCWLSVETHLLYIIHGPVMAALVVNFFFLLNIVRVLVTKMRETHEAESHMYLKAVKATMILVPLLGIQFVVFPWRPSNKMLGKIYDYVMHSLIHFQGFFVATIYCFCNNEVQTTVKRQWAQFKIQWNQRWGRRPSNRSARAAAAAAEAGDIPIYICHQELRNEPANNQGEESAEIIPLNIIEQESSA
In short: as §1

[3] = molecular target: T3, human amylin receptor (membranes from Amylin 3(a)/CRE-luc cells) (Homo sapiens, UniProt O60896+P30988); assay: ASSAY (V) binding to the human amylin receptor (SPA, 125I-rat amylin); details: for IC50: Table 4, read-out: hAmylin-R bind IC50;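 for all read-outs here: competition binding of cell membranes (35 ng/µL) mixed with SPA beads in 384-well plates at 40 µL total volume, read by scintillation counting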
T3 construct: expressed in transfected cells
T3 sequence (P30988 25-474): T2 sequence (P30988 25-474)
T3 sequence (O60896 24-148 partner): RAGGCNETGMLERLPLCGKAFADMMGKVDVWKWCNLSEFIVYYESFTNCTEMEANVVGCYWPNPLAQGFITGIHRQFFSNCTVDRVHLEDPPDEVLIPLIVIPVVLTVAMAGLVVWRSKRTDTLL

Sprague Dawley (SD) rats = assay: ASSAY (I) efficacy testing on appetite (food intake) using an ad libitum fed rat model; assay type: in vivo; details: rat, 30 nmol/kg
In short: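 Individual food consumption was logged each hour up to 7 h and again at 24 h, occasionally 48 h, with Grubbs-test outliers removed. Each 200–250 g Sprague Dawley rat, free-feeding in its home cage under reversed lighting, received a single ip, po or sc dose of 0.01–3 mg/kg at lights-off, alongside a vehicle group.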

rat calcitonin receptor = molecular target: T4, rat calcitonin receptor (Rattus norvegicus, UniProt P32214); assay: ASSAY (VIII) binding to the rat calcitonin receptor; details: Table 7, read-out: rCTR bind IC50
T4 construct: expressed in transfected cells; host or cells: BHK tk'ts 13 (transient, FuGENE 6), membranes
T4 sequence (P32214 25-479 isoform P32214-2 limits assumed): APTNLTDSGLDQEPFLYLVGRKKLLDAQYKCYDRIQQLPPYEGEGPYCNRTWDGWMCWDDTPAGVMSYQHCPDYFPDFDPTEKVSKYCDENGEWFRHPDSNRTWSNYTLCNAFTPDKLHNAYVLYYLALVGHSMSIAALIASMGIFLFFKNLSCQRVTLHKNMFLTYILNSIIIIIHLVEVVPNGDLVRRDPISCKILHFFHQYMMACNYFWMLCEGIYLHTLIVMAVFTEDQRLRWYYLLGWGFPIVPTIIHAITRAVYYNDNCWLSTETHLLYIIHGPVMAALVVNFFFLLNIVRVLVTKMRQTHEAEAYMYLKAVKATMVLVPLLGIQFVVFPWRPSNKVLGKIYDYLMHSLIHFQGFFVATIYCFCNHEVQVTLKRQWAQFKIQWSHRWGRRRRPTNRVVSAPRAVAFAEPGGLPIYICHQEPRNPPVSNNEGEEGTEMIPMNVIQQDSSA
In short: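 BHK tk′ts 13 cells, transient rat calcitonin receptor transfection; DMEM + 10% FBS; harvest ~48 h post-transfection; membrane prep.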

[4] = hCTR funct. EC50 / hAmylin-R funct. EC50
[5] = hCTR funct. EC50 divided by hAmylin-R funct. EC50
[6] = hCTR funct. EC50 over hAmylin-R funct. EC50
[7] = human functional selectivity: hCTR funct. EC50 / hAmylin-R funct. EC50
[8] = Table 5, selectivity, hCTR bind IC50 / hAmylin-R bind IC50
[9] = Table 7, human binding selectivity, included for comparison

SMILES | Ratio hCT/hAmylin funct. [1, 4] | Ratio hCT/hAmylin funct. [1, 5] | Ratio hCT/hAmylin funct. [1, 6] | EC50 [1] | Ratio hCT/hAmylin funct. [1, 7] | EC50 [2] | IC50 [3] | Ratio hCT/hAmylin binding [3, 8] | Ratio hCT/hAmylin binding [3, 9] | Food intake reduction 0-24 h 30 nmol/kg (%) (Sprague Dawley (SD) rats; 0-24 h) | Food intake reduction 24-48 h 30 nmol/kg (%) (Sprague Dawley (SD) rats; 24-48 h) | Ratio hCT/hAmylin binding ([3]; Table 5a, selectivity, hCTR bind IC50 / hAmylin-R bind IC50) | Ratio hCT/hAmylin binding ([3]; Table 5b, selectivity, hCTR bind IC50 / hAmylin-R bind IC50) | Ratio hCT/hAmylin binding ([3]; Table 5c, selectivity, hCTR bind IC50 / hAmylin-R bind IC50) | Ratio hCT/hAmylin binding ([3]; Table 7a (preferred compounds), human binding selectivity, included for comparison) | Ratio hCT/hAmylin binding ([3]; ratio of human calcitonin receptor binding IC50 to human amylin receptor binding IC50) | IC50 (rat calcitonin receptor)
CC[C@H](C)[C@H](NC(=O)[C@H](C)NC(=O)CNC(=O)[C@H](Cc1ccccc1)NC(=O)[C@H](CC(N)=O)NC(=O)[C@@H]1CCCN1C(=O)[C@H](CO)NC(=O)[C@H](CO)NC(=O)[C@H](Cc1c[nH]cn1)NC(=O)[C@H](CCCNC(=N)N)NC(=O)[C@H](CC(C)C)NC(=O)[C@H](Cc1ccccc1)NC(=O)[C@H](CCC(=O)O)NC(=O)[C@H](C)NC(=O)[C@H](CC(C)C)NC(=O)[C@H](CCCNC(=N)N)NC(=O)[C@H](CCC(N)=O)NC(=O)[C@@H](NC(=O)[C@H](C)NC(=O)[C@@H]1CSSC[C@H](NC(=O)[C@H](CCCCN)NC(=O)CC[C@H](NC(=O)CCCCCCCCCCCCCCCCCCC(=O)O)C(=O)O)C(=O)N[C@@H](CC(N)=O)C(=O)N[C@@H]([C@@H](C)O)C(=O)N[C@@H](C)C(=O)N[C@@H]([C@@H](C)O)C(=O)N1)[C@@H](C)O)C(=O)N1CCC[C@H]1C(=O)N[C@@H](CO)C(=O)N[C@@H](CO)C(=O)N[C@H](C(=O)N[C@@H](CC(N)=O)C(=O)N[C@H](C(=O)NCC(=O)N[C@@H](CO)C(=O)N[C@@H](CC(N)=O)C(=O)N[C@H](C(=O)N1CCC[C@H]1C(N)=O)[C@@H](C)O)C(C)C)[C@@H](C)O [Example 8] ({C20 diacid-γGlu}-KCNTATCATQRLAEFLRHSSPNFGAIPSSTNVGSNTP-NH2; disulfide 2-7) | 1.1 | 1.1 | 1.1 | 0.082 nM | 1.1 | 0.087 nM | 0.072 nM | 0.5 | 0.5 | – | – | – | – | – | – | – | –
CC[C@H](C)[C@H](NC(=O)[C@H](C)NC(=O)CNC(=O)[C@H](Cc1ccccc1)NC(=O)[C@H](CC(N)=O)NC(=O)[C@@H]1CCCN1C(=O)[C@H](CO)NC(=O)[C@H](CO)NC(=O)[C@H](Cc1c[nH]cn1)NC(=O)[C@H](CCCNC(=N)N)NC(=O)[C@H](CC(C)C)NC(=O)[C@H](Cc1ccccc1)NC(=O)[C@H](CC(=O)O)NC(=O)[C@H](C)NC(=O)[C@H](CC(C)C)NC(=O)[C@H](CCCNC(=N)N)NC(=O)[C@H](CCC(N)=O)NC(=O)[C@@H](NC(=O)[C@H](C)NC(=O)[C@@H]1CSSC[C@H](NC(=O)[C@H](CCCCN)NC(=O)CC[C@H](NC(=O)CCCCCCCCCCCCCCCCCCC(=O)O)C(=O)O)C(=O)N[C@@H](CC(N)=O)C(=O)N[C@@H]([C@@H](C)O)C(=O)N[C@@H](C)C(=O)N[C@@H]([C@@H](C)O)C(=O)N1)[C@@H](C)O)C(=O)N1CCC[C@H]1C(=O)N[C@@H](CO)C(=O)N[C@@H](CO)C(=O)N[C@H](C(=O)N[C@@H](CC(N)=O)C(=O)N[C@H](C(=O)NCC(=O)N[C@@H](CO)C(=O)N[C@@H](CC(N)=O)C(=O)N[C@H](C(=O)N1CCC[C@H]1C(N)=O)[C@@H](C)O)C(C)C)[C@@H](C)O [Example 10] ({C20 diacid-γGlu}-KCNTATCATQRLADFLRHSSPNFGAIPSSTNVGSNTP-NH2; disulfide 2-7 (inferred)) | 1.0 | 1.0 | 1.0 | 0.072 nM | 1.0 | 0.07 nM | 0.082 nM | 1.2 | 1.2 | – | – | – | – | – | – | – | –
CC[C@H](C)[C@H](NC(=O)[C@H](C)NC(=O)CNC(=O)[C@H](Cc1ccccc1)NC(=O)[C@H](CC(N)=O)NC(=O)[C@@H]1CCCN1C(=O)[C@H](CO)NC(=O)[C@H](CO)NC(=O)[C@H](Cc1c[nH]cn1)NC(=O)[C@H](CCCNC(=N)N)NC(=O)[C@H](CC(C)C)NC(=O)[C@H](Cc1ccccc1)NC(=O)[C@H](CCC(=O)O)NC(=O)[C@H](C)NC(=O)[C@H](CC(C)C)NC(=O)[C@H](CCCNC(=N)N)NC(=O)[C@H](CCC(N)=O)NC(=O)[C@@H](NC(=O)[C@H](C)NC(=O)[C@@H]1CSSC[C@H](NC(=O)[C@H](CCCCN)NC(=O)CC[C@H](NC(=O)CCCCCCCCCCCCCCCCCCC(=O)O)C(=O)O)C(=O)N[C@@H](CC(N)=O)C(=O)N[C@@H]([C@@H](C)O)C(=O)N[C@@H](C)C(=O)N[C@@H]([C@@H](C)O)C(=O)N1)[C@@H](C)O)C(=O)N1CCC[C@H]1C(=O)N[C@@H](CO)C(=O)N[C@@H](CO)C(=O)N[C@H](C(=O)N[C@@H](CC(N)=O)C(=O)N[C@H](C(=O)NCC(=O)N[C@@H](CO)C(=O)N[C@@H](CC(=O)O)C(=O)N[C@H](C(=O)N1CCC[C@H]1C(N)=O)[C@@H](C)O)C(C)C)[C@@H](C)O [Example 11] ({C20 diacid-γGlu}-KCNTATCATQRLAEFLRHSSPNFGAIPSSTNVGSDTP-NH2; disulfide 2-7 (inferred)) | 0.9 | 0.9 | 0.9 | 0.12 nM | 0.9 | 0.112 nM | 0.105 nM | 1.0 | 1.0 | – | – | – | – | – | – | – | –
CC[C@H](C)[C@H](NC(=O)[C@H](C)NC(=O)CNC(=O)[C@H](Cc1ccccc1)NC(=O)[C@H](CC(N)=O)NC(=O)[C@@H]1CCCN1C(=O)[C@H](CO)NC(=O)[C@H](CO)NC(=O)[C@H](Cc1c[nH]cn1)NC(=O)[C@H](CCCNC(=N)N)NC(=O)[C@H](CC(C)C)NC(=O)[C@H](Cc1ccccc1)NC(=O)[C@H](CC(=O)O)NC(=O)[C@H](C)NC(=O)[C@H](CC(C)C)NC(=O)[C@H](CCCNC(=N)N)NC(=O)[C@H](CCC(N)=O)NC(=O)[C@@H](NC(=O)[C@H](C)NC(=O)[C@@H]1CSSC[C@H](NC(=O)[C@@H](N)CCCCNC(=O)CC[C@H](NC(=O)CC[C@H](NC(=O)CCCCCCCCCCCCCCCCCCC(=O)O)C(=O)O)C(=O)O)C(=O)N[C@@H](CC(N)=O)C(=O)N[C@@H]([C@@H](C)O)C(=O)N[C@@H](C)C(=O)N[C@@H]([C@@H](C)O)C(=O)N1)[C@@H](C)O)C(=O)N1CCC[C@H]1C(=O)N[C@@H](CO)C(=O)N[C@@H](CO)C(=O)N[C@H](C(=O)N[C@@H](CC(N)=O)C(=O)N[C@H](C(=O)NCC(=O)N1CCC[C@H]1C(=O)N[C@@H](CCCNC(=N)N)C(=O)N[C@H](C(=O)N[C@@H](Cc1ccc(O)cc1)C(N)=O)[C@@H](C)O)C(C)C)[C@@H](C)O [Example 130] (H-K([γGlu-γGlu-C20 diacid])CNTATCATQRLADFLRHSSPNFGAIPSSTNVGPRTY-NH2; disulfide 2-7 (inferred); N-terminus assumed) | – | 44.9 | 44.9 | – | 44.9 | – | – | 280.0 | 280.0 | 80% | 27% | 280.0 | 280.0 | 280.0 | 280.0 | 280.0 | 223 nM
